Target: T1, hVR1 (Homo sapiens, UniProt Q8NER1)
T1 construct: expressed in transfected cells; host or cells: HEK293
Test: Human VR1 (hVR1) Functional Assay (FLIPR intracellular calcium, capsaicin challenge)
Format: cell-based
Details: capsaicin 0.030 μM, HEK293 cells expressing hVR1; for inhibition at 1 µM: test concentration 1 μM

T1 sequence (Q8NER1 whole entry): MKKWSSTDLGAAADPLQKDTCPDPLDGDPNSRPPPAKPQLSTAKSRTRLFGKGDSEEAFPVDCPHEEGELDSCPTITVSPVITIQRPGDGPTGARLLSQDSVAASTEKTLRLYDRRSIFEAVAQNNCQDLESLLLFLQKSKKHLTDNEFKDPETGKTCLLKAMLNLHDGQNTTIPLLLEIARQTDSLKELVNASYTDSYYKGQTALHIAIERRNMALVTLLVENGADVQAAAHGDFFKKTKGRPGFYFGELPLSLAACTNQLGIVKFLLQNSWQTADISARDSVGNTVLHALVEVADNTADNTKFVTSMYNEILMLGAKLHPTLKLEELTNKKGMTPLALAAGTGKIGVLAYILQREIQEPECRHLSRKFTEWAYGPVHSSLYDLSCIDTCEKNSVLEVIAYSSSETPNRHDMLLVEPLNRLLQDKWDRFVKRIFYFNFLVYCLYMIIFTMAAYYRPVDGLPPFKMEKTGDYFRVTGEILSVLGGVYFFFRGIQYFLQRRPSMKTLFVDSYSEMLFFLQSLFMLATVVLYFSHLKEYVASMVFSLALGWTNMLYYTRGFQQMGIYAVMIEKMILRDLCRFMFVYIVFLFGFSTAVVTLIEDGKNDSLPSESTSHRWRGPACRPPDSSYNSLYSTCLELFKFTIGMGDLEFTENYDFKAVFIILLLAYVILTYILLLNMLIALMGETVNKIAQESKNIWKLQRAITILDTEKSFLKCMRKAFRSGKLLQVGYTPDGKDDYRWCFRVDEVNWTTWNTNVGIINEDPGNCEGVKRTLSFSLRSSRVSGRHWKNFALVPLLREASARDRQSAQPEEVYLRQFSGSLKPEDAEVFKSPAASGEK

| Compound | IC50 | inhibition at 1 µM |
| --- | --- | --- |
| CC(O)c1ccccc1-c1ccc2[nH]c(CCc3ccc(S(=O)(=O)C(F)(F)F)cc3)nc2c1 (stereo not shown) [Cpd 46, 1-(2-{2-[2-(4-trifluoromethanesulfonyl-phenyl)-ethyl]-1H-benzimidazol-5-yl}-phenyl)-ethanol] | 46 nM | 100% |
| NC(=O)c1ccccc1-c1ccc2[nH]c(/C=C/c3ccc(C(F)(F)F)cc3)nc2c1 [Cpd 13, (E)-2-{2-[2-(4-trifluoromethyl-phenyl)-vinyl]-1H-benzimidazol-5-yl}-benzamide] | 310 nM | 82% |
| NS(=O)(=O)c1ccc(C(F)(F)F)cc1-c1ccc2[nH]c(/C=C/c3ccc(C(F)(F)F)cc3)nc2c1 [Cpd 444, (E)-4-trifluoromethyl-2-{2-[2-(4-trifluoromethyl-phenyl)-vinyl]-1H-benzimidazol-5-yl}-benzenesulfonamide] | 28 nM | 98% |
| CC(=O)c1ccccc1-c1cc2nc(/C=C/c3ccc(C(F)(F)F)cc3)[nH]c2cc1C(F)(F)F [Cpd 57, (E)-1-(2-{6-trifluoromethyl-2-[2-(4-trifluoromethyl-phenyl)-vinyl]-1H-benzimidazol-5-yl}-phenyl)-ethanone] |  | 15% |
| CS(=O)(=O)c1cc(Cl)ccc1CCc1nc2cc(-c3ccccc3S(N)(=O)=O)ccc2[nH]1 [Cpd 389, 2-{2-[2-(4-chloro-2-methanesulfonyl-phenyl)-ethyl]-1H-benzimidazol-5-yl}-benzenesulfonamide] |  | 23% |
| O=C(Nc1ccccc1-c1ccc2[nH]c(/C=C/c3ccc(C(F)(F)F)cc3)nc2c1)C(F)(F)F [Cpd 458, (E)-2,2,2-trifluoro-N-(2-{2-[2-(4-trifluoromethyl-phenyl)-vinyl]-1H-benzimidazol-5-yl}-phenyl)-acetamide] |  | 15% |
| CS(=O)(=O)Nc1ccccc1-c1ccc2[nH]c(C3CC3c3ccc(C(F)(F)F)cc3)nc2c1 (stereo not shown) [Cpd 467, N-(2-{2-[2-(4-trifluoromethyl-phenyl)-cyclopropyl]-1H-benzimidazol-5-yl}-phenyl)-methanesulfonamide] | 182 nM | 86% |
| NCc1ccccc1-c1ccc2[nH]c(CCc3ccc(C(F)(F)F)cc3)nc2c1 [Cpd 486, 2-{2-[2-(4-trifluoromethyl-phenyl)-ethyl]-1H-benzimidazol-5-yl}-benzylamine] | > 500 nM |  |
| CS(=O)(=O)Nc1ccccc1-c1ccc2[nH]c(/C=C/c3cccc(C(F)(F)F)c3)nc2c1 [Cpd 113, (E)-N-(2-{2-[2-(3-trifluoromethyl-phenyl)-vinyl]-1H-benzimidazol-5-yl}-phenyl)-methanesulfonamide] |  | 48% |
| CC(=O)c1ccccc1-c1ccc2[nH]c(/C=C/c3ccc(OC(F)(F)F)cc3)nc2c1 [Cpd 20, (E)-1-(2-{2-[2-(4-trifluoromethoxy-phenyl)-vinyl]-1H-benzimidazol-5-yl}-phenyl)-ethanone] | 320 nM |  |
| CC(=O)c1ccccc1-c1ccc2[nH]c(/C=C/c3ccc(SC(F)(F)F)cc3)nc2c1 [Cpd 39, (E)-1-(2-{2-[2-(4-trifluoromethylsulfanyl-phenyl)-vinyl]-1H-benzimidazol-5-yl}-phenyl)-ethanone] | 200 nM | 98% |
| CC(C)(C)c1ccc(/C=C/c2nc3cc(-c4ccccc4NS(C)(=O)=O)c(C(F)(F)F)cc3[nH]2)cc1 [Cpd 55, (E)-N-(2-{2-[2-(4-tert-butyl-phenyl)-vinyl]-6-trifluoromethyl-1H-benzimidazol-5-yl}-phenyl)-methanesulfonamide] |  | 14% |
| NS(=O)(=O)c1ccccc1-c1ccc2[nH]c(CCc3ccc(S(=O)(=O)C(F)(F)F)cc3)nc2c1 [Cpd 131, 2-{2-[2-(4-trifluoromethanesulfonyl-phenyl)-ethyl]-1H-benzimidazol-5-yl}-benzenesulfonamide] | 31 nM | 96% |
| CS(=O)(=O)Nc1ccccc1-c1ccc2[nH]c(/C=C/c3ccc(OCC(F)(F)F)cc3)nc2c1 [Cpd 95, (E)-N-[2-(2-{2-[4-(2,2,2-trifluoro-ethoxy)-phenyl]-vinyl}-1H-benzimidazol-5-yl)-phenyl]-methanesulfonamide] | 301 nM | 81% |
| CC(C)(C)c1ccc(/C=C/c2nc3cc(-c4cccc(O)c4)c(C(F)(F)F)cc3[nH]2)cc1 [Cpd 49, (E)-3-{2-[2-(4-tert-butyl-phenyl)-vinyl]-6-trifluoromethyl-1H-benzimidazol-5-yl}-phenol] |  | 16% |
| CS(=O)(=O)Nc1ccccc1-c1ccc2[nH]c(/C=C/c3cc(F)cc(C(F)(F)F)c3)nc2c1 [Cpd 411, (E)-N-(2-{2-[2-(3-fluoro-5-trifluoromethyl-phenyl)-vinyl]-1H-benzimidazol-5-yl}-phenyl)-methanesulfonamide] | 350 nM | 85% |
| NS(=O)(=O)c1ccccc1-c1ccc2[nH]c(CCc3ccccc3Cl)nc2c1 [Cpd 402, 2-{2-[2-(2-chloro-phenyl)-ethyl]-1H-benzimidazol-5-yl}-benzenesulfonamide] | 38 nM | 93% |
| FC(F)(F)c1ccc(/C=C/c2nc3cc(-c4ccccc4C(F)(F)F)ccc3[nH]2)cc1 [Cpd 487, (E)-5-(2-trifluoromethyl-phenyl)-2-[2-(4-trifluoromethyl-phenyl)-vinyl]-1H-benzimidazole] |  | 20% |
| NS(=O)(=O)c1ccccc1-c1ccc2[nH]c(/C=C/c3ccc(F)cc3C(F)(F)F)nc2c1 [Cpd 367, (E)-2-{2-[2-(4-fluoro-2-trifluoromethyl-phenyl)-vinyl]-1H-benzimidazol-5-yl}-benzenesulfonamide] | 53 nM | 98% |
| CNS(=O)(=O)c1ccccc1-c1ccc2[nH]c(/C=C/c3ccc4cc[nH]c4c3)nc2c1 [Cpd 454, (E)-2-{2-[2-(1H-indol-6-yl)-vinyl]-1H-benzimidazol-5-yl}-N-methyl-benzenesulfonamide] |  | 36% |

The next lines start with the values.

| IC50 | inhibition at 1 µM | Compound |
| --- | --- | --- |
| 20 nM | 97% | NS(=O)(=O)c1ccccc1-c1ccc2[nH]c(/C=C/c3ccc(C(F)F)cc3)nc2c1 [Cpd 435, (E)-2-{2-[2-(4-difluoromethyl-phenyl)-vinyl]-1H-benzimidazol-5-yl}-benzenesulfonamide] |
| 23 nM | 97% | NS(=O)(=O)c1ccccc1-c1ccc2[nH]c(/C=C/c3ccc(F)c(Br)c3)nc2c1 [Cpd 439, (E)-2-{2-[2-(3-bromo-4-fluoro-phenyl)-vinyl]-1H-benzimidazol-5-yl}-benzenesulfonamide] |
| 10 nM | 100% | CC(C)(O)c1ccccc1-c1ccc2[nH]c(C3CC3c3ccc(C(F)(F)F)cc3)nc2c1 (stereo not shown) [Cpd 471, 2-(2-{2-[2-(4-trifluoromethyl-phenyl)-cyclopropyl]-1H-benzimidazol-5-yl}-phenyl)-propan-2-ol] |
| 5 nM | 99% | CCS(=O)(=O)Nc1ccccc1-c1ccc2[nH]c(/C=C/c3ccc(C(F)(F)F)cc3)nc2c1 [Cpd 461, (E)-ethanesulfonic acid (2-{2-[2-(4-trifluoromethyl-phenyl)-vinyl]-1H-benzimidazol-5-yl}-phenyl)-amide] |
| 13 nM | 99% | NS(=O)(=O)c1ccccc1-c1ccc2[nH]c(CCc3cc(F)cc(F)c3)nc2c1 [Cpd 396, 2-{2-[2-(3,5-difluoro-phenyl)-ethyl]-1H-benzimidazol-5-yl}-benzenesulfonamide] |
| 16 nM | 100% | NS(=O)(=O)c1ccccc1-c1ccc2[nH]c(CCc3cccc(C(F)(F)F)c3)nc2c1 [Cpd 175, 2-{2-[2-(3-trifluoromethyl-phenyl)-ethyl]-1H-benzimidazol-5-yl}-benzenesulfonamide] |
| 15 nM | 98% | NS(=O)(=O)c1ccccc1-c1ccc2[nH]c(/C=C/c3ccc(F)c(Cl)c3)nc2c1 [Cpd 432, (E)-2-{2-[2-(3-chloro-4-fluoro-phenyl)-vinyl]-1H-benzimidazol-5-yl}-benzenesulfonamide] |
| 6 nM | 99% | CNS(=O)(=O)c1ccccc1-c1ccc2[nH]c(/C=C/c3ccc(SC(F)(F)F)cc3)nc2c1 [Cpd 341, (E)-N-methyl-2-{2-[2-(4-trifluoromethylsulfanyl-phenyl)-vinyl]-1H-benzimidazol-5-yl}-benzenesulfonamide] |
| 21 nM | 97% | NS(=O)(=O)c1ccccc1-c1ccc2[nH]c(CCc3cc(F)c(F)cc3F)nc2c1 [Cpd 385, 2-{2-[2-(2,4,5-trifluoro-phenyl)-ethyl]-1H-benzimidazol-5-yl}-benzenesulfonamide] |
| 12 nM | 100% | NS(=O)(=O)c1ccccc1-c1ccc2[nH]c(/C=C/c3ccc(Cl)c(C(F)(F)F)c3)nc2c1 [Cpd 378, (E)-2-{2-[2-(4-chloro-3-trifluoromethyl-phenyl)-vinyl]-1H-benzimidazol-5-yl}-benzenesulfonamide] |
| 10 nM | 96% | NS(=O)(=O)c1ccccc1-c1ccc2[nH]c(/C=C/c3cc(F)cc(C(F)(F)F)c3)nc2c1 [Cpd 436, (E)-2-{2-[2-(3-fluoro-5-trifluoromethyl-phenyl)-vinyl]-1H-benzimidazol-5-yl}-benzenesulfonamide] |
| 14 nM | 100% | CC(C)(C)c1ccc(/C=C/c2nc3cc(-c4ccccc4C(C)(C)O)ccc3[nH]2)cc1 [Cpd 463, (E)-2-(2-{2-[2-(4-tert-butyl-phenyl)-vinyl]-1H-benzimidazol-5-yl}-phenyl)-propan-2-ol] |
| 8 nM | 100% | NS(=O)(=O)c1ccccc1-c1ccc2[nH]c(/C=C/c3ccc(F)cc3F)nc2c1 [Cpd 357, (E)-2-{2-[2-(2,4-difluoro-phenyl)-vinyl]-1H-benzimidazol-5-yl}-benzenesulfonamide] |
| 9.1 nM | 101% | CC(C)(O)c1ccccc1-c1ccc2[nH]c(C#Cc3cccc(C(F)(F)F)c3)nc2c1 [Cpd 294, 2-{2-[2-(3-trifluoromethyl-phenylethynyl)-1H-benzimidazol-5-yl]-phenyl}-propan-2-ol] |

Reference: patent US7951829B2, “Benzimidazole modulators of VR1” (Janssen Pharmaceutica NV, priority 2006, dated 2011)
